The values that follow come from PubChem BioAssay (NCI).

Several values for one entry are separate records, joined by “and”; a condition that tells them apart may be missing. Equal entries are not always repeated.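 Values below derive from 48-hour exposures of cells grown in 96-well plates, with endpoints linearly interpolated between the two concentrations bracketing the appropriate inhibition level. The concentration for 50% growth inhibition is given as GI50. TGI denotes the concentration required for complete inhibition of growth.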 Where only a bound is given, the exact number is not on record here.

Among the test systems are P388 leukemia; SN12K1 renal; P388/ADR leukemia; LXFL 529 NSCLC; RXF-631 renal.
What all share (assay): NCI tumour cell line growth inhibition, 48 h

`CN1C(=O)c2ccccc2NC(=O)c2cnn(C)c21`: the TGI in the test with P388 leukemia, in the test with SN12K1 renal and in the test with P388/ADR leukemia was > 100 µM each time.
Take `N#C[S-].[Nd+3].c1cnc2c(c1)ccc1cccnc12.c1cnc2c(c1)ccc1cccnc12.c1cnc2c(c1)ccc1cccnc12`: in the test with LXFL 529 NSCLC, the GI50 was 1.84 µM and the TGI came to 14.8 µM.
In the case of `C=CCc1cc(-c2cc(CC=C)c(O)c(CN(CCCl)CCCl)c2)cc(CN(CCCl)CCCl)c1O`, the figures for the TGI in the test with LXFL 529 NSCLC and in the test with RXF-631 renal were 29.7 µM and 39.3 µM, respectively.
Take `CC1=C(C)C(=O)O[C@@H]([C@](C)(O)[C@]2(O)CC[C@@]3(O)[C@@H]4C[C@H]5O[C@]56[C@@H](O)C=CC(=O)[C@]6(C)[C@H]4CC[C@]23C)C1`: the GI50 in the test with P388 leukemia is 0.17 µM and 0.0616 µM; in the test on SN12K1 renal it was 1.4 µM and 5.89 µM; in the test on P388/ADR leukemia it was 2.5 µM and 0.487 µM. The TGI with SN12K1 renal is 6.39 µM and 21.6 µM; in the test on P388/ADR leukemia, 98.8 µM and 250 µM.
On to `Cc1cc(NC(=S)Nc2ccccc2)c(NC(=S)Nc2ccccc2)cc1C`, for which the figures for the TGI in the test on P388 leukemia, in the test with SN12K1 renal and with P388/ADR leukemia were 13.5 µM, > 59.1 µM and 19.1 µM, respectively.
For `COC(=O)CCC(=O)CC(=O)C1=NS(=O)(=O)c2nc(S(N)(=O)=O)c(Cl)cc2N1`, the TGI in the test on LXFL 529 NSCLC and in the test with RXF-631 renal was > 100 µM in each case.
Consider `CC1C(=O)OC2CC[N+]3(CC(=O)c4ccc(Br)cc4)CC=C(COC(=O)C(C)(O)C1(C)O)C23` (stereo not given), for which the TGI with P388 leukemia was > 174 µM; in the test with SN12K1 renal, > 375 µM; in the test on P388/ADR leukemia, > 375 µM.
